# Source: patent publication US20250255857A1, “METHODS OF TREATING ANDROGEN RECEPTOR-INDEPENDENT PROSTATE CANCER” (FOGHORN THERAPEUTICS INC., priority 2022, published 2025)
# What was measured:
# [1] = tested on: LNCaP prostate xenograft tumors; assay: LNCaP prostate xenograft tumor model, tumor growth inhibition; assay type: in vivo, mice
# Method: (§1) Procedure: The experimental details of the studies, including tumor model, mouse strain, cell number implanted, vehicle used, days of treatment, treatment details, and average tumor size at start of dosing are outlined in Table 1. All study mice were purchased from Beijing Anikeeper Biotech and Matrigel was utilized as a basement membrane for all xenograft models. All xenografts were engrafted subcutaneously in the right flank region. The vehicles and Compound 1 (3 mg/kg) were administered twice weekly (BIW) intraperitoneally and enzalutamide (30 mg/kg) was administered orally once daily (QD), when applicable. Tumor volumes and body weights were measured over the course of study, and doses were adjusted by body weight to achieve the proper dose in terms of mg/kg.
# [2] = tested on: VCaP prostate xenograft tumors; assay: VCaP prostate xenograft tumor model (Example 1), tumor growth inhibition; assay type: in vivo, mice; conditions: VCaP CDX model, AR V7+; 30 mg/kg QD oral
# Method: as §1
# [3] = tested on: C42B prostate xenograft tumors; assay: C42B prostate xenograft tumor model, tumor growth inhibition; assay type: in vivo, mice; conditions: C42B CDX model, AR+; 30 mg/kg QD oral
# Method: as §1
# [4] = tested on: 22Rv1 prostate xenograft tumors; assay: 22Rv1 prostate xenograft tumor model, tumor growth inhibition; assay type: in vivo, mice
# Method: as §1
# [5] = tested on: VCAP human prostate cancer tumor cells; assay: VCaP CRPC CDX model in castrated mice (Example 6), tumor growth inhibition and tolerability; assay type: in vivo; conditions: castrated mice
# Method: Procedure: The experimental details of the studies, including tumor model, mouse strain, cell number implanted, vehicle used, days of treatment, treatment details, and average tumor size at start of dosing are outlined in Table 7. All study mice were obtained and the studies were conducted at Pharmaron. Each mouse was inoculated subcutaneously on the right flank with the single cell suspension of VCAP human prostate cancer tumor cells (1×10^7) in 0.1 mL with Matrigel (1:1) in DMEM medium with 10% FBS for tumor development. The mice were castrated by removing the testes via a scrotal approach when the tumor volume reached 270 mm^3. After castration, the tumor volume decreased. Treatment started when the mean tumor volume grew back 265 mm^3. Based on tumor volume, mice were randomly assigned to respective groups using a computer-generated randomization procedure and treated according to the study design in Table 8.
# [6] = VCAP CRPC model, Enzalutamide at 30 mg/kg PO QD, 25 days
# [7] = VCAP CRPC model, Enzalutamide at 30 mg/kg PO QD, 25 days, Day 57
compound,measurement,setting,value
"CNC(=O)c1ccc(N2C(=S)N(c3ccc(C#N)c(C(F)(F)F)c3)C(=O)C2(C)C)cc1F [enzalutamide, reference compound]",TGI with Enzalutamide 30 mg/kg,"[1]; LNCaP CDX model, AR+, 30 mg/kg QD oral",92.1%
same,"tumor growth inhibition (TGI), in words","[1]; LNCaP xenograft, Compound 1 3 mg/kg BIW IP, enzalutamide 30 mg/kg QD oral",did lead to tumor growth inhibition
same,TGI with Enzalutamide 30 mg/kg,[2],46.8%
same,TGI with Enzalutamide 30 mg/kg,[3],68.5%
same,TGI with Enzalutamide 30 mg/kg,"[4]; 22RV1 CDX model, AR V7+, 30 mg/kg QD oral",40.3%
same,TGI,"[4]; 22Rv1 CDX model, Compound 1 3 mg/kg BIW IP, enzalutamide 30 mg/kg QD oral",40.3%
same,Tumor Growth % on Day 57,[5]; [6],238 ± 9%
same,Tumor Size on Day 57,[5]; [6],626 ± 28 mm3
same,T/C,[5]; [7],76.7%
same,TGI,[5]; [7],23.3%
same,TGI,"[5]; VCaP CRPC model, Compound 1 10 mg/kg, enzalutamide 30 mg/kg, day 57 after tumor inoculation",23.3%
